How the values were obtained:
singlet oxygen = assay: ROS generation: singlet oxygen measured by decrease of ADPA fluorescence; assay type: biochemical
Protocol: A ROS-generating effect of the RLuc8-MS protein was confirmed using 100 μL of buffer (50 mM HEPES-KOH, 24° C., pH 7.4) containing RLuc8-MS protein (final concentration: 10 μM), anthracene-9,10-dipropionic acid (ADPA, Abcam., UK; final concentration: 50 μM) whose fluorescence intensity decreases in the presence of singlet oxygen, flavin mononucleotide (FMN) (final concentration: 150 μM) and a Co-h substrate solution. The rate of decrease in fluorescence intensity was measured at the excitation wavelength of 380 nm and the emission wavelength of 430 nm of ADPA using a plate reader.
a ROS-generating effect of the RLuc8-MS protein was measured using RLuc8-MS (final concentration: 10 μM) and ADPA (final concentration: 50 μM) whose fluorescence intensity decreases in the presence of singlet oxygen.
Here, the active oxygen generation rate of each protein was measured using 100 μL of buffer (50 mM HEPES-KOH, 24° C., pH 7.4) containing FMN (final concentration: 150 μM) and a Co-h substrate solution (final concentration: 150 μM).
The rate of decrease in fluorescence intensity was measured at the excitation wavelength of 370 nm and the emission wavelength of 420 nm of DHE using a plate reader. In addition, the rate of decrease in fluorescence intensity was measured at the excitation wavelength of 380 nm and the emission wavelength of 430 nm of ADPA using a plate reader.
A ROS generation rate was measured using 100 μL of buffer (50 mM HEPES-KOH, 24° C., pH 7.4) containing the KR protein, RLuc8.6-KR protein (final concentration: 10 μM) and ADPA (final concentration: 50 μM) whose fluorescence intensity decreases in the presence of singlet oxygen.
A ROS generation rate was measured using 100 μL of buffer (50 mM HEPES-KOH, 24° C., pH 7.4) containing MS, RLuc8-MS (final concentration: 10 μM), ADPA (final concentration: 50 μM) whose fluorescence intensity decreases in the presence of singlet oxygen and FMN (final concentration: 150 μM).
After irradiation with light at 10 mW/cm^2 for 30 minutes, the rate of decrease in fluorescence intensity was measured at the excitation wavelength of 380 nm and the emission wavelength of 430 nm of ADPA using a plate reader.
A ROS generation rate was measured using 100 μL of buffer (50 mM HEPES-KOH, 24° C., pH 7.4) containing the KR protein, RLuc8.6-KR protein (final concentration: 10 μM) and ADPA (final concentration: 50 μM) whose fluorescence intensity decreases in the presence of singlet oxygen and a Co-h substrate solution (final concentration: 150 μM).
A ROS generation rate was measured using 100 μL of buffer (50 mM HEPES-KOH, 24° C., pH 7.4) containing MS, RLuc8-MS (final concentration: 10 μM), ADPA (final concentration: 50 μM) whose fluorescence intensity decreases in the presence of singlet oxygen, FMN (final concentration: 150 μM) and a Co-h substrate solution (final concentration: 150 μM).
The rate of decreasing fluorescence intensity was measured at the excitation wavelength of 380 nm and the emission wavelength of 430 nm of ADPA using a plate reader. […]

MCF-7 cells = assay: Cell death by SYTOX Green or EthD-1 and DAPI fluorescence (light irradiation or Co-h); assay type: cell-based, human; conditions: MCF-7, protein 10 μM 24 hours; light 10 mW/cm^2 or Co-h 150 μM over time
Protocol: MCF-7 cells were seeded at 5×10^5 cells/mL in a 96-well plate (SPL Cell Culture Plate, 96 well (SPL, Cat #30096)), and cultured at 37° C. for 24 hours (overnight). After the culture for 24 hours, the cells were washed with FBS & Phenol red-free media (RPMI), and 100 μL of an FBS-free medium containing the purified protein (final concentration: 10 μM) was added, followed by reaction at 37° C. for 24 hours.
After the reaction for 24 hours, the cells were washed with FBS & Phenol red-free media (RPMI), and then 100 μL of FBS & Phenol red-free media (RPMI) was then added.
After the reaction, 8.1 μL of FMN (final concentration: 150 μM) was added. […]
SYTOX Green or EthD-1 and DAPI fluorescence images were observed using a confocal microscope according to a protein type treated to cells and i) light irradiation time or ii) reaction time with a Co-h substrate, and cell death was confirmed by measuring relative fluorescence intensity at an excitation wavelength of 504 nm and an emission wavelength of 523 nm of SYTOX Green, and an excitation wavelength of 525 nm and an emission wavelength of 590 nm of EthD-1 using a plate reader.
Whether or not Cell death was observed by fluorescence microscopy using SYTOX Green (dead cell-specific dye, green) or EthD-1 (dead cell-specific dye, red) and DAPI (live cell-specific dye, blue).

For “MS: first protein MiniSOG, ROS-generating protein (singlet oxygen), expressed from pRSET-MiniSOG, 13 kDa [reference compound]”, the “singlet oxygen generation rate after light irradiation” value (singlet oxygen; 10 mW/cm^2, 30 minutes, no substrate, protein 10 μM, ADPA) was “higher singlet oxygen generation rate”, the “singlet oxygen generation rate by Co-h reaction after ROS scavenger treatment” value (singlet oxygen; RLuc8-MS 10 μM, Co-h 150 μM 30 minutes, SOD 800 U/ml, sodium azide 100 mM or D-mannitol 100 mM) was “lowest when sodium azide was treated” and the “cell death by staining (SYTOX Green or EthD-1 dead cells, DAPI live cells)” value (MCF-7 cells) was “stained with DAPI”.
“RLuc8-MS: fusion protein of RLuc8 and MiniSOG without lead peptide, 53 kDa” was tested, and the “singlet oxygen generation rate after Co-h substrate reaction” value (singlet oxygen; Co-h 150 μM, 30-min reaction, without light irradiation, protein 10 μM, ADPA) was “highest singlet oxygen generation rate”, the “Co-h concentration until which the singlet oxygen generation rate increased, then constantly maintained” value (singlet oxygen; protein 10 μM, ADPA 50 μM, FMN 150 μM, substrate reaction time 5 minutes) was 150 µM and the “reaction time with Co-h until which the singlet oxygen generation rate increased, then constantly maintained” value (singlet oxygen; protein 10 μM, Co-h 150 μM, ADPA) was 20 min. The “cell death by staining (SYTOX Green or EthD-1 dead cells, DAPI live cells)” value (MCF-7 cells) was “stained with DAPI”.
